In a melting point compilation (Tetko et al.):

Structure (SMILES) | melting point
Cc1ccc(N)c(C(=O)N(C)C)c1 | 98 to 100 °C
Cc1nn(C)c(C)c1NC(=O)C(C)Cl (configuration not stated) | 120 to 122 °C
Cc1cc(C=O)c(C)n1C1CC1 | 71 to 75 °C
Nc1cc(Cl)ccc1Sc1ccccc1 | 62 to 64 °C
CC(=O)NC1(C(=O)O)CCC(C)CC1 (configuration not stated) | 211 to 213 °C
O=C1CC(=Cc2ccc(F)cc2)C(=O)N1 | 209 to 211 °C
N#Cc1cccc(-n2cccn2)c1 | 61 to 63 °C
O=C(O)c1ccc2[nH]c(=O)[nH]c2c1 | 373 to 375 °C
Cc1ccc(C)c2c(C)c(C(=O)O)oc12 | 239 to 241 °C
CC(C)n1ccc(=O)nc1S | 254 to 256 °C
CC(C)(C)OC(=O)N1CCCC(CC#N)C1 (configuration not stated) | 48 to 50 °C
COc1cc(-c2nnc(CCl)o2)cc(OC)c1OC | 121 to 123 °C
O=C(O)c1ccc2nnc(C(F)F)n2c1 | 278 to 280 °C
O=Ic1ccccc1 | 199 to 201 °C
S=C=Nc1cccnc1Cl | 35 to 37 °C
CCOC(OCC)c1nnc[nH]1 | 59 to 61 °C
O=C(O)CC(=O)NC1CC1 | 99 to 101 °C
Cc1ccc(S(=O)(=O)N2CCCCC2C(=O)O)cc1 (configuration not stated) | 100 to 102 °C
CC(=O)c1csc(-c2csc(C)n2)c1 | 125 to 127 °C
NC(=O)c1sc2ccccc2c1N | 217 to 219 °C
O=C(O)c1cc2ccccc2cc1I | 215 to 217 °C
N#Cc1cccc(OCCBr)c1 | 36 to 38 °C
Cc1ccc(NC(=O)C(C)Cl)cc1F (configuration not stated) | 102 to 104 °C
c1ccc(-c2c[nH]c(C3CCCNC3)n2)cc1 (configuration not stated) | 93 to 95 °C
c1cc2n(n1)CCCN2 | 99 to 101 °C
O=C(O)c1ccc2c(=O)n3c(nc2c1)CCCCC3 | 276 to 278 °C

Structure (SMILES) | melting point
O=Cc1cnn(-c2cccc(Cl)c2)n1 | 84 to 86 °C
O=C(O)c1cc(=O)[nH]c2ccc([N+](=O)[O-])cc12 | 375 to 377 °C
NS(=O)(=O)c1ccc(O)c(C(=O)O)c1 | 233 to 235 °C
Cn1cc(S(=O)(=O)Cl)c([N+](=O)[O-])n1 | 70 to 72 °C
CC(=O)c1cccc(N2CCCC2=O)c1 | 90 to 95 °C
CCOc1cccc(F)c1[N+](=O)[O-] | 34 to 36 °C
O=C(O)c1cccc(S(=O)(=O)Nc2ccccc2Cl)c1 | 186 to 188 °C
CC(C)S(=O)(=O)c1ccc(CCl)cc1 | 69 to 71 °C
O=S(=O)(c1ccccc1)c1ccc(O)cc1 | 135 to 137 °C
O=C(O)c1cccc(N2C(=O)CSC2=S)c1 | 260 to 262 °C
Cn1c(Cl)nc(Cl)c1C=O | 61 to 63 °C
O=c1c([N+](=O)[O-])c(Cl)nc2ccccn12 | 212 to 214 °C
CCCC(C)=CC(=O)O | 33 to 35 °C
CC1CCc2c(sc3nc(CC#N)[nH]c(=O)c23)C1 (configuration not stated) | 266 to 268 °C
O=C1NC(=O)C(CCSSCCC2NC(=O)NC2=O)N1 (configuration not stated) | 236 to 238 °C
S=C1NC2CCCCC2N1 (configuration not stated) | 134 to 136 °C
NS(=O)(=O)c1cc(F)cc([N+](=O)[O-])c1 | 184 to 186 °C
O=C(O)c1cccc(S(=O)(=O)Nc2ccc(Br)cc2)c1 | 241 to 243 °C
O=C(CO)N1CCc2ccccc21 | 147 to 149 °C
CCOC(=O)c1cc(C#N)c(SCC(=O)O)[nH]c1=O | 195 to 197 °C
CCOc1ccc(OC(C)(C)C(=O)O)cc1 | 66 to 68 °C
O=C(O)c1cc(F)ccc1-c1ccccc1 | 117 to 119 °C
Nc1cc(-c2cc(Cl)cc(Cl)c2)no1 | 132 to 134 °C
COc1ccc(C(=O)O)cc1S(=O)(=O)N1CCCC1 | 218 to 220 °C
O=S(=O)(Cl)Cc1noc2ccccc12 | 96 to 98 °C
O=C(O)c1ccc(Br)cc1I | 170 to 172 °C

Structure (SMILES) | melting point
O=[N+]([O-])c1ccc(Cl)c(S(=O)(=O)N2CCCC2)c1 | 114 to 116 °C
O=C(O)/C=C/c1cccc(-c2ccccc2)c1 | 195 to 197 °C
NNC(=O)NCC1CCCO1 (configuration not stated) | 79 to 81 °C
CCOC(=O)c1sc(-c2cccc(Br)c2)cc1N | 97 to 99 °C
O=C(O)CCOc1ccc2ccccc2c1 | 66 to 68 °C
CCOC(=O)COc1cccc(C(=O)O)c1 | 119 to 121 °C
Nc1nnc(-c2cccnc2)[nH]1 | 207 to 209 °C
O=C(Nc1ccc(-n2cnc3ccccc32)nc1)OCC(F)(F)F | 239 to 241 °C
CCOC(=O)c1n[nH]sc1=N | 126 to 128 °C
NC(=O)c1cnc(Cl)c(Cl)c1 | 204 to 206 °C
NCc1ccc(OCC(N)=O)cc1 | 106 to 108 °C
COc1cccc(-c2cc(N)n(C)n2)c1 | 94 to 96 °C
NC(=NO)c1ccc(N2CCN(c3ccc(F)cc3)CC2)nc1 | 191 to 193 °C
COC(=O)c1cccc(OCc2ncon2)c1 | 102 to 104 °C
O=S(=O)(Cl)c1cccnc1Cl | 42 to 44 °C
O=C(O)CCc1nnc(-c2ccccc2I)o1 | 84 to 86 °C
Cc1cncc(C=CC(=O)O)c1 | 209 to 211 °C
O=C(O)c1nnn(C2CC2)c1C(F)(F)F | 90 to 92 °C
O=C1CS/C(=C/C(=O)c2ccco2)N1 | 251 to 253 °C
CCN1CCCC1CN=C=S (configuration not stated) | 43 to 45 °C
Cc1cccc2c1CN(C(=O)OC(C)(C)C)CCN2 | 95 to 97 °C
CN(C)CCOc1ccc(C(N)=S)cc1 | 142 to 144 °C
Cn1c(=O)c(Br)c(N)n(Cc2ccccc2)c1=O | 210 to 212 °C
NC(=NO)c1cccc(Cn2cnc3ccccc32)c1 | 226 to 228 °C
N#Cc1ccnc(OCc2ccccc2)c1 | 74 to 76 °C
Nc1cc(S(=O)(=O)NCCCN2CCOCC2)ccc1Cl | < 17 °C

Structure (SMILES) | melting point
CN(C)c1ccc(N)cc1Cl | 72 to 73 °C
NC1CCN(C(=O)C2CCCCC2)CC1 | 78 to 80 °C
N#Cc1ccc(S)cc1C(F)(F)F | 71 to 73 °C
Cc1ccccc1Nc1nc2sc(C(=O)O)cc2s1 | 232 to 234 °C
O=C(O)c1cc(-c2ccncc2)nc2ccc(Br)cc12 | 340 to 342 °C
O=Cc1ccc(OCCC(=O)O)cc1 | 132 to 134 °C
O=C(O)C=Cc1ccc(OCc2ccncc2)cc1 | 298 to 300 °C
COc1ccc(N)c2cccnc12 | 155 to 157 °C
O=C1C(=O)N(Cc2ccc(Cl)cc2)c2ccccc21 | 163 to 165 °C
COC(=O)N1CCc2ccccc21 | 72 to 74 °C
Cc1cc2ncn(Cc3ccc(F)cc3)c2cc1C | 135 to 137 °C
O=C(O)CCCOc1ccc(I)cc1 | 126 to 128 °C
O=C(O)c1cc(Cl)n[nH]c1=O | 212 to 214 °C
Cc1cc([N+](=O)[O-])cnc1N1CCCCC1C (configuration not stated) | 48 to 50 °C
CCS(=O)(=O)Nc1ccccc1C(=O)O | 145 to 147 °C
Cc1cc(C)nc(-n2nc(C)c(CC(=O)O)c2C)n1 | 249 to 251 °C
Cc1ccc(C2CC2C(=O)O)cc1C (configuration not stated) | 97 to 99 °C
CCc1c(C)nc2ccccc2c1O | 279 to 281 °C
Cn1cc(Cl)cc1C(=O)O | 129 to 131 °C
CS(=O)Cc1c(C(=O)O)oc2ccccc12 (configuration not stated) | 177 to 179 °C
Cc1c(CCC(=O)O)c(=O)[nH]c2c1c(=O)[nH]n2C | 304 to 306 °C
NCc1ccc(N2CCN(c3ccccn3)CC2)nc1 | 107 to 109 °C
O=C(O)c1ccccc1CN1C(=O)CNC1=O | 201 to 203 °C
Cc1c(C(=O)O)cc(Cl)cc1S(=O)(=O)Cl | 109 to 111 °C
